Source: US12594349B2, “Compositions and methods for the targeting of PCSK9” (Scribe Therapeutics Inc., priority 2022, dated 2026)

B1: 27.100 (nucleic acid)
guide: ACUUUGAGAGCCAUCACCAGCGACUAUGUCGUAGUGGGUAAAGCUCCCUCUUCGGAGGGAGCAUCAAAGCUCUCUCUUUCUGAGGCmU*mA*mG
modifications: as printed in the source, key not given here

Legend:
[1] = system: PCSK9 locus; assay: RNA-seq, normalized PCSK9 read counts in transfected Huh7 cells; assay type: cell-based, human; conditions: Huh7, mRNA + gRNA scaffold 316 v1, 6 and 26 days post-transfection
Source text: (§1) Seeded Huh7 cells were transfected with mRNA encoding a catalytically-active CasX 676, dXR1, or LTRP5-ADD-ZIM3 and a gRNA with scaffold 316 and a spacer targeting the PCSK9 locus. Cells were harvested at 6 and 26 days post-transfection and subsequently lysed and stored in DNA/RNA Shield (Zymo Research). As an additional control, untreated, naïve cells were also harvested. The collected samples were subjected to gDNA/RNA extraction using the Quick-DNA/RNA Miniprep Plus kit (Zymo Research). RNA samples were used for total RNA sequencing (RNA-seq), which was performed by a third-party. Raw FASTQ files were received and processed with FASTQC, and adapters were trimmed using Trim Galore. Transcript expression was then quantified against the hg38 genome using Salmon to generate normalized counts for each gene (transcripts per million, or TPM). Differential expression analysis was performed using DESeq2. Genes with fewer than 10 counts in all samples were omitted from analysis, and all pairwise comparisons (e.g., differential gene expression analyses between untreated and treated conditions at the two individual timepoints) were done with significance thresholds of |log 2FC|>2 and adjusted p-value<0.001.

[2] = system: human PCSK9 locus; assay: Secreted PCSK9 by ELISA in Huh7 cells transfected with mRNA and gRNA; assay type: cell-based; conditions: Huh7 cells; for Secreted PCSK9: 6 days post-transfection, normalized to total cell count; for Percent reduction in PCSK9 secretion / Average percent reduction in PCSK9 secretion: LTRP5-ADD-ZIM3 mRNA; for Percent reduction in PCSK9 secretion: day 6, relative to non-targeting gRNA control; for Average percent reduction in PCSK9 secretion: day 6, averaged from the two doses
Method in brief: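 Huh7 (also HepG2, Hep3B) cells were transfected with mRNA for CasX 676, dXR1 or LTRP5-ADD-ZIM3 plus scaffold 316 gRNA targeting PCSK9 or B2M; one screen used 50:25 or 25:12.5 ng mRNA:gRNA. Supernatant PCSK9 was measured by ELISA at 4–87 days post-transfection and normalized to cell count.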

[3] = system: Huh7 cells; assay: RNA-seq, differentially regulated off-target genes in transfected Huh7 cells; assay type: cell-based, human; conditions: Huh7, 6 and 26 days post-transfection, |log2FC|>2 and adjusted p-value<0.001
Source text: as §1

[4] = system: mouse PCSK9 locus; assay: Intracellular PCSK9 staining by flow cytometry in Hepa1-6 cells lipofected with mRNA and gRNA; assay type: cell-based; conditions: Hepa1-6, dXR1 mRNA, day 6
Protocol: Seeded Hepa1-6 cells treated with the NATE™ inhibitor were lipofected with 300 ng of mRNA encoding dXR1 or LTRP1-ZIM3 (Table 12) and 150 ng of a PCSK9-targeting gRNA (Table 14). Seven different gRNAs spanning the promoter region of the mouse PCSK9 locus were tested, in addition to a non-targeting sequence complementary to the human PCSK9 gene (Table 14). Cells were harvested at 6, 13, and 25 days after transfection to measure intracellular levels of the PCSK9 protein using an intracellular flow cytometry staining protocol. […]
Seeded Hepa1-6 cells treated with the NATE™ inhibitor were lipofected with 300 ng of mRNA encoding LTRP1-ZIM3, LTRP5-ZIM3, catalytically-active CasX 491, or dCas9-ZNF10-DNMT3A/3L, and 150 ng of PCSK9-targeting gRNA (Table 14). Intracellular levels of PCSK9 protein were measured at 7, 14, 21, 36, and 71 days post-transfection using an intracellular staining protocol as described earlier for experiment #1.
Transfection of mRNA and gRNA into Hepa1-6 cells and intracellular PCSK9 staining were performed as described in Example 2. […] Intracellular levels of PCSK9 protein were measured at various timepoints, up to day 53 post-transfection using an intracellular staining protocol as described earlier in Example 2. […]

[5] = LTRP5-ADD-ZIM3 mRNA + gRNA scaffold 316, 25 ng mRNA:12.5 ng gRNA
[6] = LTRP5-ADD-ZIM3 mRNA + gRNA scaffold 316, 50 ng mRNA:25 ng gRNA

Molecule	PCSK9 expression by RNA-seq [1]	Secreted PCSK9 [2, 5] [ng/mL]	Secreted PCSK9 [2, 6] [ng/mL]	Percent reduction in PCSK9 secretion ([2]; 25 ng mRNA:12.5 ng gRNA) [%]	Percent reduction in PCSK9 secretion ([2]; 50 ng mRNA:25 ng gRNA) [%]	Average percent reduction in PCSK9 secretion [2] [%]	differentially regulated off-target genes [3]	degree of repression with dXR1 mRNA compared with LTRP1-ZIM3 mRNA [4]
TG-06-133 (guide AUGGUAGGCACAAGCUCAGC; listed as RNA, chemistry not given here)	durably repress PCSK9 expression	42.13	29.45	40.86	64.21	52.53	lowest number of differentially regulated off-target genes	–
TG-06-154 (guide AGGGUGUGGGUGCUUGACGC; listed as RNA, chemistry not given here)	durably repress PCSK9 expression	24.48	6.87	65.64	91.65	78.64	higher number of differentially regulated off-target genes	–
TG-06-167 (guide CACUGAAUAGCGCAGCCGCA; listed as RNA, chemistry not given here)	durably repress PCSK9 expression	66.61	39.55	6.51	51.93	29.22	higher number of differentially regulated off-target genes	–
B1	–	–	–	–	–	–	–	less substantial
